Experimental findings from patent US20040147554A1, “Crystalline form of (3R,4R)-4-[3-(S)-hydroxy-3-(6-methoxy-quinolin-4-yl)propyl]-1-[2-2thienylthio)ethyl] piperidine-3-carboxylic acid” (Aventis Pharms S.A., priority 2002, published 2004) are described below.

Common to all, as to assay type: physicochemical
Data set [1] can be described thus: Stability of the crystalline form versus humidity (powder X-ray diffraction). The protocol:
The analyses are carried out on a Bruker D8 diffractometer having a copper-anticathode tube equipped with a front monochromator (wavelength of the copper Kα1 line: 1.54060 Å). The arrangement is of Bragg-Brentano type, with a point scintillation detector. The angular range swept extends from 2 to 40 degrees 2θ with a step of 0.02 degrees 2θ. The counting time is 120 seconds per step.
Form C of (3R,4R)-4-[3-(S)-hydroxy-3-(6-methoxyquinolin-4-yl)propyl]-1-[2-(2-thienylthio)ethyl]piperidine-3-carboxylic acid is a monohydrate form. It is stable at 25° C. and at the degree of ambient humidity. It is particularly stable between 50% and 100% humidity.

The nature of data set [2]: Loss in mass on heating below 50% humidity (dehydration). Particulars: between 25° C. and 75° C., 1 mole of water/mole of the acid, dehydration to form B. Here is the method:
Below 50% humidity, a loss in mass of 3.7% by weight is recorded between 25° C. and 75° C. (1 mole of water/mole of the acid). This loss in mass corresponds to the dehydration of the form C to give another form of (3R,4R)-4-[3-(S)-hydroxy-3-(6-methoxyquinolin-4-yl)propyl]-1-[2-(2-thienylthio)ethyl]piperidine-3-carboxylic acid, hereinafter known as form B.

Data set [3] in a line: Stability of the crystalline form in alcohol/water mixtures. The note with it: methanol/water or ethanol/water (1/1 by volume), after 30 days. Here is the method: by stirring a suspension of form A at a temperature of 20° C.-25° C., in tetrahydrofuran/demineralized water (50/50 by volume), methyl ethyl ketone/demineralized water (80/20 by volume to 20/80 by volume), acetonitrile/demineralized water (50/50 by volume to 20/80 by volume) or ethanol or methanol/demineralized water (50/50 by volume) mixtures, for 5 days to about 30 days.

Molecules are shown by their SMILES.

On to `COc1ccc2nccc([C@@H](O)CC[C@@H]3CCN(CCSc4cccs4)C[C@@H]3C(=O)O)c2c1` [Form B, (3R,4R)-4-[3-(S)-hydroxy-3-(6-methoxyquinolin-4-yl)propyl]-1-[2-(2-thienylthio)ethyl]piperidine-3-carboxylic acid], for which the “humidity up to which the form is stable” value in data set [1] (humidity) is listed as “up to 30%”.
With `COc1ccc2nccc([C@@H](O)CC[C@@H]3CCN(CCSc4cccs4)C[C@@H]3C(=O)O)c2c1` [Form C, (3R,4R)-4-[3-(S)-hydroxy-3-(6-methoxyquinolin-4-yl)propyl]-1-[2-(2-thienylthio)ethyl]piperidine-3-carboxylic acid], in data set [1] (25° C., ambient humidity), the “stability of the crystalline form” value is “stable”. Further, in data set [1] (97% humidity, 20° C., after 11 weeks), the “stability by powder X-ray diffraction” value is “stability in the monohydtrate form”. For the same compound, the loss in mass in data set [2] is recorded as 3.7 % by weight. Moreover, the “stability of the crystalline form in solvent mixture” value in data set [3] is listed as “stable”.
